Source: patent US20240139197A1, “INHIBITION OF KDM5A FOR PROMOTING ANTIGEN PRESENTATION, INCREASING CD8+ T CELL INFILTRATION AND BOOSTING ANTI-TUMOR IMMUNE RESPONSE” (The Wistar Institute of Anatomy and Biology, priority 2022, published 2024)

Experiments:
[1] = tested on: ID8 cells; experiment: syngeneic ovarian cancer mouse model, CPI-455 treatment; format: in vivo; conditions: 50 mg/kg i.p., immuno-competent C57BL/6 mice bearing ID8
[2] = tested on: ID8 cells; experiment: cell viability by colony formation assay, ID8; format: cell-based, mouse; conditions: ID8, 10 μM, 8 days
Experimental: FIG. 2A-FIG. 2J show KDM5A inhibition suppresses tumor growth in vivo in an immune-competent mouse model of ovarian cancer. (FIG. 2A) Expression of Kdm5a, H3K4me3, and a loading control β-actin in doxycycline-inducible shKdm5a ID8 mouse EOC cells treated with or without 2 μg/mL of doxycycline. (FIG. 2B) ID8 cells were plated into 24 well plates and treated with 2 μg/mL of doxycycline the same day. Cells were incubated for 8 days. Relative cell viability was determined by colony formation assay. (FIG. 2C) Expression of Kdm5a, H3K4me3, and a loading control β-actin in ID8 cells treated with 10uM CPI-455 or vehicle control. (FIG. 2D) ID8 cells were plated into 24 well plates and incubated with 10 μM CPI-455 for 8 days with fresh drug-containing media every 3 days. Relative cell viability was determined by colony formation assay. (FIG. 2E) Ascites produced in C57BL/6 mice injected with doxycycline-inducible shKdm5a ID8 cells treated with control or doxycycline containing food. (FIG. 2F) Quantification of ascites volumes from FIG. 2E. (FIG. 2G) Kaplan-Meier survival curves for the indicated groups. […] (FIG. 21) Quantification of ascites volumes from FIG. 2H. […] Data represent mean±SEM of three biological repeats or 5 mice per group; P-value was calculated by using a two-tailed Student t test except in FIG. 2G and FIG. 2J by log rank tests. […]

[3] = tested on: H2-K1 in ID8 cells; experiment: H2-K1 expression by RT-qPCR; format: cell-based, mouse; conditions: ID8, with IFNγ treatment
Description: (§1) FIG. 4A-FIG. 4M show KDM5A regulates antigen processing and presentation pathway. (FIG. 4A) Experimental strategy used to identify Kdm5a direct target genes. […] (FIG. 4B) CUT&RUN tracks of the newly identified Kdm5a target gene H2-K1 for Kdm5a and H3K4me3 in ID8 cells. (FIG. 4C) Expression of H2-K1 in doxycycline-inducible shKdm5a ID8 cells, Kdm5a inhibitor CPI-455, or Kdm5a knockout cells with or without IFNγ stimulation determined by RT-qPCR. (FIG. 4D) Cell surface expression of H2-K1 in control and Kdm5a knockout ID8 cells with or without IFNy stimulation was determined by FACS analysis. (FIG. 4E) Quantification of FIG. 4D. (FIG. 4F) Cell surface expression of H2-K1 in control and doxycyclineinducible Kdm5a-knockdown ID8 cells with or without IFNγ stimulation was determined by FACS analysis. (FIG. 4G) Quantification of FIG. 4F. (FIG. 4H) Cell surface expression of H2-K1 in D8 cells treated with vehicle or CPI-455 with or without IFNγ stimulation was determined by FACS analysis. (FIG. 4I) Quantification of FIG. 4H; An isotype matched IgG was used as a negative control for all the FACS analysis. […] Data represent mean±SEM of three biological repeats; P-value was calculated by using a two-tailed Student t test except in FIG. 4L by using Pearson r analysis test and FIG. 4M by using Fisher's exact test. […]

[4] = tested on: H2-K1 gene promoter in ID8 cells; experiment: ChIP at H2-K1 gene promoter; format: cell-based, mouse; conditions: ID8, IFNγ, anti-H3K4me3 ChIP
Description: as §1

CPI-455
ascites production [1]: significantly reduced ascites production | survival of tumor bearing mice [1]: improved the survival | cell viability [2]: did not affect cell viability | expression of H2-K1 [3]: upregulated | association of H3K4me3 with H2-K1 gene promoter [4]: increased the association of H3K4me3
